Source: ChEMBL document CHEMBL2380231, “X-ray crystal structure of ERK5 (MAPK7) in complex with a specific inhibitor” (J Med Chem, 2013)
pEC50: −log10 of the molar value. Activity calls are given as the source filed them. The calls are words filed in the database; no cut-off is given here.

Key:
Format in all cases: cell-based
[1] = molecular target: T1, Mitogen-activated protein kinase 7 (Homo sapiens, UniProt Q13164); assay: Inhibition of ERK5 autophosphorylation in sorbitol-stimulated human HeLa cells at 0.04 to 5 uM incubated for 1 hr prior to sorbitol stimulation measured after 30 mins by Western blot analysis
Target sequence in this assay (Q13164 2-816 limits assumed): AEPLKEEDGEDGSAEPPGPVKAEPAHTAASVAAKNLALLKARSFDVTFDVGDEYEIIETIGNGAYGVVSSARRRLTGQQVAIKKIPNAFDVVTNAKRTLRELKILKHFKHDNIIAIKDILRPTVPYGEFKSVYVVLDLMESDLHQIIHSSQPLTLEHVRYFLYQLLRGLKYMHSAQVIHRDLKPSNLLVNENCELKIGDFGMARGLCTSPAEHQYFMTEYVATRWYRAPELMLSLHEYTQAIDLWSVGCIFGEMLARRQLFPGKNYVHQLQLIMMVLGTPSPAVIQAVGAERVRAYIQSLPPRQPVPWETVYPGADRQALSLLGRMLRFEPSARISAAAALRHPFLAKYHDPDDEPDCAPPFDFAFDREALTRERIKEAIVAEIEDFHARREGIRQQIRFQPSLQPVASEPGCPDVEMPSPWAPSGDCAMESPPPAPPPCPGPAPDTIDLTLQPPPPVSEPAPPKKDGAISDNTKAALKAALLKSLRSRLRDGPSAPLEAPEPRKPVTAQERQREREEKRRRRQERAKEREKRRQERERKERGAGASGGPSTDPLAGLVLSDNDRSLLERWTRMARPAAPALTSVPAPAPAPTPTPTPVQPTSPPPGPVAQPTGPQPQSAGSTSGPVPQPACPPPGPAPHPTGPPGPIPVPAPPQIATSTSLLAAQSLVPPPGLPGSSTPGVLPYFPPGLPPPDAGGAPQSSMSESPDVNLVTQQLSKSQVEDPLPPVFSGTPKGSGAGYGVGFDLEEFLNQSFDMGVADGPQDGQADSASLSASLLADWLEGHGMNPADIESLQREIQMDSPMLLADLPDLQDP

[2] = molecular target: T2, Mitogen-activated protein kinase; ERK1/ERK2 (Homo sapiens) (UniProt P27361+P28482); assay: Inhibition of ERK1/ERK2 phosphorylation in sorbitol-stimulated human HeLa cells at 0.04 to 5 uM incubated for 1 hr prior to sorbitol stimulation measured after 30 mins by Western blot analysis
T2 sequence (P27361 whole entry, looked up): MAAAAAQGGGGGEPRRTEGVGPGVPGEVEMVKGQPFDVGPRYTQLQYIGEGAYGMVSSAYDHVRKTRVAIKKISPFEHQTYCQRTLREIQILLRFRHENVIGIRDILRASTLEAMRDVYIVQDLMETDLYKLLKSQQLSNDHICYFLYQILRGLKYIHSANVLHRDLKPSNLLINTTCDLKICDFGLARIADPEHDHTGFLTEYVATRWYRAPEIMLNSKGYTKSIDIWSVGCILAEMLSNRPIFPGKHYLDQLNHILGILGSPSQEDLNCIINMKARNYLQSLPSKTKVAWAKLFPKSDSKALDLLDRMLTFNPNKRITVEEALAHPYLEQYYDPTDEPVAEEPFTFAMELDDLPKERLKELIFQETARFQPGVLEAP
T2 sequence (P28482 whole entry, looked up): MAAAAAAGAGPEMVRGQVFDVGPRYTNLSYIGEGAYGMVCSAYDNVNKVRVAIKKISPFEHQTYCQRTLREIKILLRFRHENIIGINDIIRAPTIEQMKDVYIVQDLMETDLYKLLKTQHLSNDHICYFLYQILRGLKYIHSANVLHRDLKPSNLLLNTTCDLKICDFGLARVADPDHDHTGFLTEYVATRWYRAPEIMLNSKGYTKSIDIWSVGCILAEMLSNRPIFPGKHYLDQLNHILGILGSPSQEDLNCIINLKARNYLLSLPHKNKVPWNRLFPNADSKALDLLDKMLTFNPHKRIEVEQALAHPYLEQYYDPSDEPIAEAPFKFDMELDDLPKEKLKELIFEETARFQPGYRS

[3] = molecular target: T2, Mitogen-activated protein kinase; ERK1/ERK2 (Homo sapiens); assay: Inhibition of total ERK1/ERK2 in sorbitol-stimulated human HeLa cells at 0.04 to 5 uM incubated for 1 hr prior to sorbitol stimulation measured after 30 mins by Western blot analysis
[4] = molecular target: T1, Mitogen-activated protein kinase 7; assay: Inhibition of GST-tagged full length human ERK5 transfected in HEK293 cells assessed as inhibition of AP1 transcriptional activity after 24 hrs by dual luciferase reporter gene assay
Target sequence in this assay (Q13164 whole entry): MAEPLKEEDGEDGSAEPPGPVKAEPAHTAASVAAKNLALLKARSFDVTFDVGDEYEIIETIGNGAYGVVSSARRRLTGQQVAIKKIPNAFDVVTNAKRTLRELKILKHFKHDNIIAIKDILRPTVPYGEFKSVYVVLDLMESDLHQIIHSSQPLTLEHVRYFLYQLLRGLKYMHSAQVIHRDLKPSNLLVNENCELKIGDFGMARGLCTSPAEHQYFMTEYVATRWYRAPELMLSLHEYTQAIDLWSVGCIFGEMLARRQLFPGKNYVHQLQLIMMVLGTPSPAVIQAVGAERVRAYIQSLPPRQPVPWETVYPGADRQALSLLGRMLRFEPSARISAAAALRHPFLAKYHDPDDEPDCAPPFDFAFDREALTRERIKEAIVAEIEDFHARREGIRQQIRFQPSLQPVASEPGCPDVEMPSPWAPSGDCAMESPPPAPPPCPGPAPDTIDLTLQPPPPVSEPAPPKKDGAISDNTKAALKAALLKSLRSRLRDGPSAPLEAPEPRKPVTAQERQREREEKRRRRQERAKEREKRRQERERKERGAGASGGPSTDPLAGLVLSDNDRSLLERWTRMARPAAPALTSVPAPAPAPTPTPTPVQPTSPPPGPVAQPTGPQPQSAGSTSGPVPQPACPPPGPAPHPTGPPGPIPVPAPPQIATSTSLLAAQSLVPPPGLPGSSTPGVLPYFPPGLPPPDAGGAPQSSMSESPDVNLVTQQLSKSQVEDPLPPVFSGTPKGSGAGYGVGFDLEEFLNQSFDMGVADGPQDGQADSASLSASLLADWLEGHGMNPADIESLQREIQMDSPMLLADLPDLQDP

| SMILES | inhibition [1] | inhibition [2] | inhibition [3] | pEC50 [4] |
| --- | --- | --- | --- | --- |
| CCOc1cc(C(=O)N2CCC(N3CCN(C)CC3)CC2)ccc1Nc1ncc2c(n1)N(C1CCCC1)c1ccccc1C(=O)N2C | Active | inactive | inactive | – |
| COc1cc(C(=O)N2CCC(N3CCN(C)CC3)CC2)ccc1Nc1ncc2c(n1)N1CCc3cccc(c31)C(=O)N2C | – | – | – | < 4.52 |
